Reference: US20060160887A1, “Medicinal composition” (Kyowa Hakko Kogyo Co., Ltd., priority 2003, published 2006)

Experiments:
[1] = tested on: premicturition contractions in rats with spinal cord injury; experiment: Inhibitory activity on detrusor overactivity (cystometry, premicturition contractions) in rats with spinal cord injury; assay type: in vivo, rat; conditions: p.o.; for amplitude of premicturition contractions (relative value, before administration = 100) / frequency of premicturition contractions (relative value, before administration = 100): female SD rats with spinal cord injury, mean ± SE, n = 9; for effect on premicturition contractions (amplitude and frequency of premicturition contractions), in words: rats with spinal cord injury, summary of Tables 1 and 2
From the text: Spinal cord was injured in the rats.

[2] = tested on: A-type potassium channels; conditions: known from WO02/078523 and WO02/078710; cited from earlier work
[3] = Compound (Ia) 0.01 mg/kg, after 1 hour
[4] = Compound (Ia) 0.01 mg/kg, after 3 hours
[5] = Compound (Ia) 0.01 mg/kg, after 5 hours
[6] = Tolterodine 3 mg/kg, after 1 hour
[7] = Tolterodine 3 mg/kg, after 3 hours
[8] = Tolterodine 3 mg/kg, after 5 hours

Row | SMILES | amplitude of premicturition contractions (relative value, before administration = 100) [1, 3] [%] | frequency of premicturition contractions (relative value, before administration = 100) [1, 3] [%] | amplitude of premicturition contractions (relative value, before administration = 100) [1, 4] [%] | frequency of premicturition contractions (relative value, before administration = 100) [1, 4] [%] | amplitude of premicturition contractions (relative value, before administration = 100) [1, 5] [%] | frequency of premicturition contractions (relative value, before administration = 100) [1, 5] [%] | effect on premicturition contractions (amplitude and frequency of premicturition contractions), in words [1] | effect on A-type potassium channels, in words [2] | amplitude of premicturition contractions (relative value, before administration = 100) [1, 6] [%] | frequency of premicturition contractions (relative value, before administration = 100) [1, 6] [%] | amplitude of premicturition contractions (relative value, before administration = 100) [1, 7] [%] | frequency of premicturition contractions (relative value, before administration = 100) [1, 7] [%] | amplitude of premicturition contractions (relative value, before administration = 100) [1, 8] [%] | frequency of premicturition contractions (relative value, before administration = 100) [1, 8] [%]
1 | C[C@](O)(C(=O)Nc1cccc2c1C(=O)c1sccc1CS2(=O)=O)C(F)(F)F [Compound (Ia), (S)-(+)-3,3,3-trifluoro-2-hydroxy-2-methyl-N-(5,5,10-trioxo-4,10-dihydrothieno[3,2-c][1]benzothiepin-9-yl) propanamide] | 71.9 ± 7.3 | 61.6 ± 9.8 | 62.6 ± 7.3 | 53.2 ± 4.9 | 65.1 ± 7.2 | 56.0 ± 8.3 | inhibited premicturition contractions | – | – | – | – | – | – | –
2 | CC(O)(C(=O)Nc1cccc2c1C(=O)c1sccc1CS2(=O)=O)C(F)(F)F (stereo not drawn) [Compound (I), 3,3,3-trifluoro-2-hydroxy-2-methyl-N-(5,5,10-trioxo-4,10-dihydrothieno[3,2-c][1]benzothiepin-9-yl)propanamide] | – | – | – | – | – | – | – | opening effect of A-type potassium channels | – | – | – | – | – | –
3 | Cc1ccc(O)c([C@H](CCN(C(C)C)C(C)C)c2ccccc2)c1 [Tolterodine, tolterodine, reference compound] | – | – | – | – | – | – | inhibited premicturition contractions | – | 105.9 ± 24.3 | 70.4 ± 11.6 | 79.6 ± 9.7 | 73.4 ± 8.2 | 70.3 ± 11.9 | 75.5 ± 12.0
